Several values for one entry are separate records, joined by “and”; a condition that tells them apart may be missing. Equal entries are not always repeated.
Conditions: Liquid, Vibrating tube method

FC(C(F)(F)F)C(F)(F)F [1,1,1,2,3,3,3-heptafluoropropane]
Conditions | mass density
283.14 K, 31470 kPa | 1570.9 kg/m3
283.14 K, 31923 kPa | 1572.2 kg/m3
283.14 K, 31954 kPa | 1572.2 kg/m3
283.14 K, 31990 kPa | 1572.3 kg/m3
283.14 K, 32053 kPa | 1572.5 kg/m3
283.14 K, 32196 kPa | 1572.9 kg/m3
283.14 K, 32239 kPa | 1573 kg/m3
283.14 K, 32276 kPa | 1573 kg/m3
283.14 K, 32317 kPa | 1573.1 kg/m3
283.14 K, 32360 kPa | 1573.2 kg/m3
283.14 K, 32439 kPa | 1573.5 kg/m3
283.14 K, 32476 kPa | 1573.6 kg/m3
283.14 K, 32513 kPa | 1573.7 kg/m3
283.14 K, 32546 kPa | 1573.8 kg/m3
283.14 K, 32585 kPa | 1573.8 kg/m3
283.14 K, 32618 kPa | 1574 kg/m3
283.14 K, 32651 kPa | 1574 kg/m3
283.14 K, 32687 kPa | 1574.2 kg/m3
283.14 K, 32724 kPa | 1574.4 kg/m3
283.14 K, 32761 kPa | 1574.4 kg/m3
283.14 K, 32793 kPa | 1574.4 kg/m3
283.14 K, 32841 kPa | 1574.7 kg/m3
283.14 K, 32986 kPa | 1574.9 kg/m3
283.14 K, 33019 kPa | 1575.2 kg/m3
283.14 K, 33051 kPa | 1575.2 kg/m3
283.14 K, 33098 kPa | 1575.1 kg/m3
283.14 K, 33128 kPa | 1575.4 kg/m3
283.14 K, 33158 kPa | 1575.5 kg/m3
283.14 K, 33205 kPa | 1575.6 kg/m3
283.14 K, 33237 kPa | 1575.7 kg/m3
283.14 K, 33312 kPa | 1575.9 kg/m3
283.15 K, 461 kPa | 1449.6 kg/m3 and 1449.7 kg/m3 and 1449.5 kg/m3
283.15 K, 462 kPa | 1449.6 kg/m3 and 1449.5 kg/m3 and 1449.7 kg/m3
283.15 K, 463 kPa | 1449.6 kg/m3
283.15 K, 465 kPa | 1449.6 kg/m3
283.15 K, 485 kPa | 1449.7 kg/m3
283.15 K, 513 kPa | 1449.9 kg/m3
283.15 K, 538 kPa | 1450.1 kg/m3
283.15 K, 571 kPa | 1450.2 kg/m3
283.15 K, 601 kPa | 1450.5 kg/m3
283.15 K, 635 kPa | 1450.8 kg/m3
283.15 K, 666 kPa | 1450.9 kg/m3
283.15 K, 696 kPa | 1451.1 kg/m3
283.15 K, 723 kPa | 1451.2 kg/m3
283.15 K, 745 kPa | 1451.3 kg/m3
283.15 K, 785 kPa | 1451.6 kg/m3
283.15 K, 825 kPa | 1451.8 kg/m3
283.15 K, 870 kPa | 1452 kg/m3
283.15 K, 902 kPa | 1452.3 kg/m3
283.15 K, 2647 kPa | 1462.4 kg/m3
283.15 K, 2695 kPa | 1462.6 kg/m3
283.15 K, 2733 kPa | 1462.7 kg/m3
283.15 K, 2772 kPa | 1462.9 kg/m3
283.15 K, 2817 kPa | 1463.3 kg/m3
283.15 K, 2855 kPa | 1463.4 kg/m3
283.15 K, 2910 kPa | 1463.7 kg/m3
283.15 K, 2943 kPa | 1464 kg/m3
283.15 K, 2982 kPa | 1464.2 kg/m3
283.15 K, 3012 kPa | 1464.3 kg/m3
283.15 K, 3043 kPa | 1464.5 kg/m3
283.15 K, 3065 kPa | 1464.6 kg/m3
283.15 K, 3097 kPa | 1464.7 kg/m3
283.15 K, 3117 kPa | 1464.9 kg/m3
283.15 K, 3653 kPa | 1467.8 kg/m3
283.15 K, 3681 kPa | 1467.9 kg/m3
283.15 K, 3713 kPa | 1468.1 kg/m3
283.15 K, 3737 kPa | 1468.2 kg/m3
283.15 K, 3764 kPa | 1468.5 kg/m3
283.15 K, 3789 kPa | 1468.4 kg/m3
283.15 K, 3818 kPa | 1468.6 kg/m3
283.15 K, 3851 kPa | 1468.8 kg/m3
283.15 K, 3880 kPa | 1469 kg/m3
283.15 K, 3906 kPa | 1469.1 kg/m3
283.15 K, 3935 kPa | 1469.3 kg/m3
283.15 K, 3961 kPa | 1469.4 kg/m3
283.15 K, 4806 kPa | 1473.8 kg/m3
283.15 K, 4895 kPa | 1474.2 kg/m3
283.15 K, 4922 kPa | 1474.4 kg/m3
283.15 K, 4945 kPa | 1474.4 kg/m3
283.15 K, 5000 kPa | 1474.7 kg/m3
283.15 K, 5032 kPa | 1474.9 kg/m3
283.15 K, 5060 kPa | 1475.1 kg/m3
283.15 K, 5088 kPa | 1475.3 kg/m3
283.15 K, 5115 kPa | 1475.2 kg/m3
283.15 K, 5147 kPa | 1475.5 kg/m3
283.15 K, 5176 kPa | 1475.7 kg/m3
283.15 K, 5204 kPa | 1475.8 kg/m3
283.15 K, 5232 kPa | 1476 kg/m3
283.15 K, 5260 kPa | 1476.1 kg/m3
283.15 K, 5284 kPa | 1476.2 kg/m3
283.15 K, 5323 kPa | 1476.4 kg/m3
283.15 K, 5350 kPa | 1476.5 kg/m3
283.15 K, 5373 kPa | 1476.8 kg/m3
283.15 K, 5402 kPa | 1476.8 kg/m3
283.15 K, 5425 kPa | 1477 kg/m3
283.15 K, 5522 kPa | 1477.4 kg/m3
283.15 K, 5563 kPa | 1477.6 kg/m3
283.15 K, 5594 kPa | 1477.8 kg/m3
283.15 K, 5634 kPa | 1478 kg/m3
283.15 K, 5666 kPa | 1478.1 kg/m3
283.15 K, 6204 kPa | 1480.7 kg/m3
283.15 K, 6271 kPa | 1480.9 kg/m3
